The values that follow come from ChEMBL document CHEMBL5518246, “Discovery of Small Molecule Interleukin 17A Inhibitors with Novel Binding Mode and Stoichiometry: Optimization of DNA-Encoded Chemical Library Hits to In Vivo Active Compounds” (J Med Chem, 2024).

In brackets after ≈: the same amount, converted by molar mass.

Data set [1] in a line: Metabolic stability in human liver microsomes assessed as unbound intrinsic clearance at 0.5 uM measured after 4 hrs. It is filed as ADME, Microsome.
A short description of data set [2]: Thermodynamic solubility of the compound at pH 7.4 measured after 48 hrs by UHPLC analysis. It is filed as physicochemical. The conditions noted are these: buffer, read-out: Therm_solubility.

For the molecule `C[C@H](NC(=O)[C@]1(NC(=O)c2cc(Cl)c(Cl)[nH]2)CO[C@H](c2ccccc2)C1)c1ncc2c(n1)CN([C@H]1CCN(C)C1)C2`, the CL free in data set [1] was under 45 mL/min/kg. Besides, the solubility thermodynamic at 48 h in data set [2] was over 1000 µM.

On to `C[C@H](NC(=O)[C@]1(NC(=O)c2cc(Cl)c(Cl)[nH]2)CO[C@H](c2ccccc2)C1)c1ncc2c(n1)CN(CC(F)F)C2`, for which, in data set [1], the CL free stood at 55 mL/min/kg. Further, the solubility thermodynamic at 48 h in data set [2] came out at 7.2 µM (≈ 4.17 µg/mL).

On to `C[C@H](NC(=O)[C@]1(NC(=O)c2cc(Cl)c(Cl)[nH]2)CO[C@H](c2ccccc2)C1)c1ncc2c(n1)CN(CC(F)(F)F)C2`, for which, in data set [1], the CL free worked out at 200 mL/min/kg. Also, the solubility thermodynamic at 48 h in data set [2] is 5.3 µM (≈ 3.17 µg/mL).

As to `C[C@H](NC(=O)[C@H](CCc1ccccc1)NC(=O)c1cc(Cl)c(Cl)[nH]1)c1ncccn1`, the CL free in data set [1] stood at 200 mL/min/kg. The solubility thermodynamic at 48 h in data set [2] was 1.7 µM (≈ 0.759 µg/mL).

With `C[C@H](NC(=O)[C@]1(NC(=O)c2cc(Cl)c(Cl)[nH]2)CO[C@H](c2ccccc2)C1)c1ncc2c(n1)CNC2`, the CL free in data set [1] turned out to be 217 mL/min/kg. Moreover, the solubility thermodynamic at 48 h in data set [2] was determined as 719 µM (≈ 371 µg/mL).

`C[C@H](NC(=O)[C@]1(NC(=O)c2cc(Cl)c(Cl)[nH]2)CO[C@H](c2ccccc2)C1)c1ncc2c(n1)CN(C)C2`: in data set [1], the CL free stood at 88.3 mL/min/kg. Also, the solubility thermodynamic at 48 h in data set [2] amounted to 190 µM (≈ 101 µg/mL).

For `C[C@H](NC(=O)[C@]1(NC(=O)c2cc(Cl)c(Cl)[nH]2)CO[C@H](c2ccccc2)C1)c1ncc2c(n1)CN(C1COC1)C2`, the CL free in data set [1] was under 28.3 mL/min/kg. Also, the solubility thermodynamic at 48 h in data set [2] came out at 280 µM (≈ 160 µg/mL).

On to `C[C@H](NC(=O)[C@]1(NC(=O)c2cc(Cl)c(Cl)[nH]2)CO[C@H](c2ccccc2)C1)c1ncc2c(n1)CN([C@@H]1CCN(C)C1)C2`, for which the CL free in data set [1] is 400 mL/min/kg. Also, the solubility thermodynamic at 48 h in data set [2] was over 1000 µM.

For the molecule `O=C(N[C@@H](CCc1ccccc1)C(=O)NCc1ncc(C2CCOCC2)cn1)c1cc(Cl)c(Cl)[nH]1`, the CL free in data set [1] is 333 mL/min/kg. Also, the solubility thermodynamic at 48 h in data set [2] is 2.5 µM (≈ 1.29 µg/mL).

`C[C@H](NC(=O)[C@]1(NC(=O)c2cc(Cl)c(Cl)[nH]2)CO[C@H](c2cccc(C#N)c2)C1)c1ncc2c(n1)CN(C1CCN(C)CC1)C2`: the CL free in data set [1] is under 38.3 mL/min/kg. For the same molecule, the solubility thermodynamic at 48 h in data set [2] was determined as 654 µM (≈ 417 µg/mL).

On to `O=C(N[C@@H](CCc1ccccc1)C(=O)NCc1ncc(CO)cn1)c1cc(Cl)c(Cl)[nH]1`, for which the CL free in data set [1] stood at 71.7 mL/min/kg. The solubility thermodynamic at 48 h in data set [2] was 73 µM (≈ 33.8 µg/mL).

As to `COCc1cccc([C@@H]2C[C@](NC(=O)c3cc(Cl)c(Cl)[nH]3)(C(=O)N[C@@H](C)c3ncc4c(n3)CN(C3CCN(C)CC3)C4)CO2)c1`, the CL free in data set [1] was under 35 mL/min/kg. In data set [2], the solubility thermodynamic at 48 h worked out at 660 µM (≈ 433 µg/mL).

`C[C@H](NC(=O)[C@]1(NC(=O)c2cc(Cl)c(Cl)[nH]2)CO[C@H](c2ccccc2)C1)c1ncc2c(n1)CN(CC#N)C2`: the CL free in data set [1] was 120 mL/min/kg. Besides, the solubility thermodynamic at 48 h in data set [2] turned out to be 61 µM (≈ 33.8 µg/mL).

Regarding `C[C@H](NC(=O)[C@]1(NC(=O)c2cc(Cl)c(Cl)[nH]2)CO[C@H](c2ccccc2)C1)c1ncc2c(n1)CN(C1CN(C)C1)C2`, the CL free in data set [1] is under 26.7 mL/min/kg. Moreover, in data set [2], the solubility thermodynamic at 48 h stood at 600 µM (≈ 351 µg/mL).

In the case of `COCc1cnc(CNC(=O)[C@H](CCc2ccccc2)NC(=O)c2cc(Cl)c(Cl)[nH]2)nc1`, the CL free in data set [1] amounted to 167 mL/min/kg. Moreover, the solubility thermodynamic at 48 h in data set [2] is 5.7 µM (≈ 2.72 µg/mL).

For the molecule `O=C(N[C@@H](CCc1ccccc1)C(=O)NCc1cccnc1)c1cc(Cl)c(Cl)[nH]1`, the CL free in data set [1] worked out at 1300 mL/min/kg. In addition, in data set [2], the solubility thermodynamic at 48 h stood at 230 µM (≈ 99.2 µg/mL).

On to `O=C(N[C@@H](CCc1ccccc1)C(=O)NCc1ncccn1)c1cc(Cl)c(Cl)[nH]1`, for which the CL free in data set [1] came out at 46.7 mL/min/kg. Besides, the solubility thermodynamic at 48 h in data set [2] is 25 µM (≈ 10.8 µg/mL).

As to `O=C(N[C@@H](CCc1ccccc1)C(=O)NCc1ccccc1)c1cc(Cl)c(Cl)[nH]1`, in data set [1], the CL free is 1530 mL/min/kg. Further, the solubility thermodynamic at 48 h in data set [2] was 145 µM (≈ 62.4 µg/mL).

Turning to `COc1cccc([C@@H]2C[C@](NC(=O)c3cc(Cl)c(Cl)[nH]3)(C(=O)N[C@@H](C)c3ncc4c(n3)CN(C3CCN(C)CC3)C4)CO2)c1`, the CL free in data set [1] is under 41.7 mL/min/kg. Besides, the solubility thermodynamic at 48 h in data set [2] was found to be 532 µM (≈ 342 µg/mL).
